What all share (assay type): biochemical, uncultured Chloroflexota bacterium
Common to all, as to settings: pH 9.0, 30°C

In assay [1] the test system is T1, IS10.
T1 construct: N-terminal 6xHis tag (pET-46 Ek/LIC), E. coli BL21(DE3); dimer in solution
In words: spectrophotometric release of p-nitrophenol, […] nm.

The test system of assay [2] is T2, IS12.
T2 construct: N-terminal 6xHis tag (pET-46 Ek/LIC), E. coli BL21(DE3); dimer in solution
In words: spectrophotometric release of p-nitrophenol, […] nm.

Assay [3] relates to T1, IS10. In words: spectrophotometric release of α-naphthol, […] nm.
Assay [4] deals with T2, IS12. In words: spectrophotometric release of α-naphthol, […] nm.

With `CC(=O)Oc1ccc([N+](=O)[O-])cc1` [pNP-acetate], the Km amounted to 50 ± 10 µM in assay [1] and 220 ± 50 µM in assay [2].
Regarding `CCCC(=O)Oc1ccc([N+](=O)[O-])cc1` [pNP-butyrate], the Km in assay [1] is 60 ± 10 µM; in assay [2], 80 ± 10 µM.
The matching figures for `CCCCCC(=O)Oc1ccc([N+](=O)[O-])cc1` [pNP-hexanoate]: 40 ± 10 µM and 90 ± 10 µM.
For `CCCC(=O)Oc1cccc2ccccc12` [αN-butyrate], the “KM” value in assay [3] was found to be 120 ± 40 µM.
For `CCC(=O)Oc1cccc2ccccc12` [αN-propionate], the Km in assay [3] is 60 ± 20 µM; in assay [4] it was 690 ± 190 µM.

The values are drawn from paper PMC9972953, “Thermophilic Carboxylesterases from Hydrothermal Vents of the Volcanic Island of Ischia Active on Synthetic and Biobased Polymers and Mycotoxins” (Applied and Environmental Microbiology, 2023).
